Assay results taken from US6849256B1, “Inhibition of pathogens by probiotic bacteria” (priority 1999, dated 2005).

What was measured:
[1] = tested on: Bacillus coagulans, subspecies Hammer (ATCC-31284); assay: Kirby-Bauer antibiotic susceptibility testing of Bacillus coagulans; type: cell-based; settings: inhibition zone diameter (disk diffusion)
[2] = tested on: Bacillus coagulans, subspecies Hammer (ATCC-31284); assay: Vitek machine-based antibiotic susceptibility testing of Bacillus coagulans; type: cell-based

Compound | Susceptibility of Bacillus coagulans to the antibiotic, Kirby-Bauer testing [1] | Susceptibility of Bacillus coagulans to the antibiotic, Vitek testing ([2]; optical density of culture) | further results
CC1(C)S[C@@H]2[C@H](NC(=O)[C@H](N)c3ccccc3)C(=O)N2[C@H]1C(=O)O [ampicillin] | Susceptible | – | –
O=C(N[C@H](CO)[C@H](O)c1ccc([N+](=O)[O-])cc1)C(Cl)Cl [chloramphenicol] | – | Susceptible | –
O=C(O)c1cn(C2CC2)c2cc(N3CCNCC3)c(F)cc2c1=O [ciprofloxacin] | Susceptible | – | –
CC[C@H]1OC(=O)[C@H](C)[C@@H](O[C@H]2C[C@@](C)(OC)[C@@H](O)[C@H](C)O2)[C@H](C)[C@@H](O[C@@H]2O[C@H](C)C[C@H](N(C)C)[C@H]2O)[C@](C)(O)C[C@@H](C)C(=O)[C@H](C)[C@@H](O)[C@]1(C)O [erythromycin] | Susceptible | – | –
CCn1cc(C(=O)O)c(=O)c2cc(F)c(N3CCNCC3)cc21 [norfloxacin] | – | Susceptible | –
Cc1onc(-c2ccccc2)c1C(=O)N[C@@H]1C(=O)N2[C@@H]1SC(C)(C)[C@@H]2C(=O)O [oxacillin] | Susceptible | – | –
CO[C@H]1/C=C/O[C@@]2(C)Oc3c(C)c(O)c4c(O)c(c(/C=N/N5CCN(C)CC5)c(O)c4c3C2=O)NC(=O)/C(C)=C\C=C\[C@H](C)[C@H](O)[C@@H](C)[C@@H](O)[C@@H](C)[C@H](OC(C)=O)[C@@H]1C [rifampin] | Susceptible | – | –
[H]/N=C(/N)N[C@H]1[C@H](O)[C@@H](O)[C@H](O[C@@H]2O[C@@H](C)[C@](O)(C=O)[C@H]2O[C@@H]2O[C@@H](CO)[C@H](O)[C@@H](O)[C@@H]2NC)[C@@H](N/C(N)=N\[H])[C@@H]1O [streptomycin] | – | – | Susceptibility of Bacillus coagulans to the antibiotic, Vitek testing ([2]; 2,000 μg/ml): Susceptible
CN[C@H](CC(C)C)C(=O)N[C@H]1C(=O)N[C@@H](CC(N)=O)C(=O)N[C@H]2C(=O)N[C@H]3C(=O)N[C@H](C(=O)N[C@H](C(=O)O)c4cc(O)cc(O)c4-c4cc3ccc4O)[C@H](O)c3ccc(c(Cl)c3)Oc3cc2cc(c3O[C@@H]2O[C@H](CO)[C@@H](O)[C@H](O)[C@H]2O[C@H]2C[C@](C)(N)[C@H](O)[C@H](C)O2)Oc2ccc(cc2Cl)[C@H]1O [vancomycin] | Susceptible | Susceptible | –
gentamicin | Susceptible | – | Susceptibility of Bacillus coagulans to the antibiotic, Vitek testing ([2]; 500 μg/ml): Susceptible
penicillin | – | Susceptible | –
trimethoprim-sulfamethoxazole | Susceptible | – | –
